A short description of data set [1]: Solubility. The data set is classed as physicochemical.
The test system of data set [2] is bronchospasm against histamine. Nature of the data set: Broncholytic effect at the narcotized guinea-pig, bronchospasm by histamine. It counts as in vivo. Conditions: for change in vivo at 3 mg/kg: 3 mg/kg i.v.; for change in vivo at 10 mg/kg: 10 mg/kg i.v. The protocol:
(§1) 2. Broncholytic effect at the narcotized guinea-pig
(§2) This test was performed according to H. Konsett and R. Rossler ("Archiv exp. Path. Pharmak." vol. 195 (1940), page 71).

The test system of data set [3] is bronchospasm against acetylcholine. Nature of the data set: Broncholytic effect at the narcotized guinea-pig, bronchospasm by acetylcholine. The data set is classed as in vivo. Conditions: Cavia porcellus, iv, 2 min, 2 min. i.p.; for change in vivo at 10 mg/kg: 10 mg/kg i.v. The protocol:
as §1, §2

Data set [4] has as its system human blood. Briefly: Fibrinolytic effect in vitro, Hanging-Clot-test. It counts as biochemical. The protocol:
This effect was measured by the Hanging-Clot-test according to K. N. von Kaulla ("Journ. med. Chem." vol. 8 (1965), page 164) in using human blood. The incubation time was 24 or 48 hours.

The subject of data set [5] is bronchospasm against acrotonine. Briefly: Broncholytic effect at the narcotized guinea-pig, bronchospasm by acrotonine (so in the source). The following applies: 2 min. i.p. It counts as in vivo. The protocol:
as §1, §2

A short description of data set [6]: Toxicity in the mouse (LD50). The following applies: in vivo, ip, read-out: Toxicity (LD50-range or LD50). The method, then:
The toxicity was determined as LD50 --range or as LD50 according to Litchfield and Wilcoxon ("J. Pharmacol. exp. Ther." 97 (1949), page 399) in the mouse.

Data set [7] concerns cerebral blood perfusion. Briefly: Cerebral blood perfusion by fluvography at the cat (i.v.). The data set is classed as in vivo. The method, then: (§3) Animal tests were carried out with various oxoalkylxanthine derivatives, in which the toxicity in the mouse, the increase of cerebral and muscular blood perfusion at the cat and the fibrinolytic effect in vitro in the Hanging-Clot-test were measured. Furthermore the broncholytic effect of various compounds was tested.
(§4) 1. Cerebral and muscular blood perfusion by fluvography
(§5) These tests were performed at the cat according to K. Popendiker, I. Boksay and V. Bollmann ("Arzneimittel Forschung" vol. 21 (1971), page 1160).
(§6) The values obtained in the mentioned test 1 are given as Δλ and as half-life values in Table 2 and the results of tests 2 to 5 are enumerated in Table 3. In Table 2 Δλ is the change of blood perfusion.

Data set [8] has as its system muscular blood perfusion. Nature of the data set: Muscular blood perfusion by fluvography at the cat (i.v.). The data set is classed as in vivo. The method, then:
as §3, §4, §5, §6

Where [9] appears, read: Cavia porcellus, iv, 2 min, 2 min. i.p., sample in propanediol.
Where [10] appears, read: 3 mg/kg i.v., sample in propanediol.
[11] abbreviates: 10 mg/kg i.v., sample in propanediol, sample 1: Longtime effect (footnote 1).
The mark [12] stands for this setting: Cavia porcellus, iv, 2 min, 2 min. i.p.
Setting [13] is: 2 mg/kg i.v. vs sample 8 at 5 mg/kg.

In general, LD50 refers to the dose at which mortality reaches 50%.

For `CCCCCCn1cnc2c1c(=O)n(CCCCC(C)=O)c(=O)n2C` [Example 2, 1-(5-Oxohexyl)-3-methyl-7-n-hexyl-xanthine], in data set [1], the “Solubility in dimethyl sulphoxide” value is listed as “over 10%”, the Solubility in dimethylformamide entry is on record as “over 10%”, the Solubility in ethanol entry is on record as “over 10%” and the “Solubility in water (in words)” value is listed as “only sparingly soluble in water”.
Regarding `CC(=O)CCCCn1c(=O)c2c(ncn2CC(C)C)n(C)c1=O` [Example 3, 1-(5-oxohexyl)-3-methyl7-isobutyl-xanthine], in data set [1], the “Solubility in dimethyl sulphoxide” value is reported as “over 10%”, the Solubility in dimethylformamide entry is listed as “over 10%” and the Solubility in ethanol entry is “over 10%”.
Consider `CCCn1c(=O)c2c(ncn2CCCCC(C)=O)n(C)c1=O` [Sample 1, 1-n-Propyl-3-methyl-7-(5-oxohexyl)-xanthine], for which, in data set [1], the “Solubility in dimethyl sulphoxide” value is recorded as “over 10%”, the Solubility in dimethylformamide entry is reported as “over 10%” and the Solubility in ethanol result was “over 10%”. Further, in data set [2] (setting [9]), the change in vivo at 3 mg/kg was -63% and the change in vivo at 10 mg/kg was -73%. In data set [3] (setting [10]), the change in vivo at 3 mg/kg was -33%. The change in vivo at 10 mg/kg in data set [3] (sample in propanediol) was -55%. In addition, the “Fibrinolytic effect relative to comparison sample 8” value in data set [4] was “two times as strong”. Moreover, the “Minimum concentration for partial lysis” value in data set [4] (human blood, 24 hours incubation) was found to be 40 mmol. Also, the “Minimum concentration for complete lysis” value in data set [4] (human blood, 48 hours incubation (bracket)) worked out at 20 mmol. Besides, the “Change of the bronchospasm in % against acrotonine” value (“Change of the bronchospasm in %” for short) in data set [5] (setting [10]) is -40%. In addition, in data set [5] (setting [11]), the “Change of the bronchospasm in %” value is -82%. Besides, the LD50 in data set [6] lay within 100 to 250 mg/kg.
As for `CC(=O)CCCCn1cnc2c1c(=O)n(CC(C)C)c(=O)n2C` [Sample 2, 1-isobutyl-3-methyl-7-(5-oxohexyl)-xanthine], in data set [2] (setting [12]), the change in vivo at 3 mg/kg was -80% and the change in vivo at 10 mg/kg was -73%. In data set [7] (1 mg/kg i.v.), the “Cerebral blood perfusion half-life” value is 1.0 min and the “Cerebral blood perfusion Δλ (change of blood perfusion)” value is on record as “+1.85”. Also, in data set [7] (5 mg/kg i.v.), the “Cerebral blood perfusion half-life” value was 14.3 min, the “Cerebral blood perfusion relative to comparison sample 8” value was “about four times stronger”, the “Cerebral blood perfusion Δλ (change of blood perfusion)” value is on record as “+3.45” and the “Half-life (cerebral) relative to comparison sample 8” value is listed as “more than five times longer”. In addition, the “Cerebral blood perfusion compared with sample 8 (in words)” value in data set [7] (i.v.) is “stronger and longer cerebral blood perfusion”. Moreover, in data set [3], the change in vivo at 10 mg/kg is -29%. In addition, the “Muscular blood perfusion Δλ (change of blood perfusion)” value in data set [8] (1 mg/kg i.v.) was 0. In data set [8] (5 mg/kg i.v.), the “Muscular blood perfusion half-life” value came out at 0.60 min and the “Muscular blood perfusion Δλ (change of blood perfusion)” value is reported as “+0.05”. In data set [5] (3 mg/kg i.v.), the “Change of the bronchospasm in %” value is given as -20%. The “Change of the bronchospasm in %” value in data set [5] (10 mg/kg i.v.) is reported as -47%. For the same molecule, the LD50 in data set [6] lay in the range of 250 to 500 mg/kg.
As to `CCCCCCn1c(=O)c2c(ncn2CCCCC(C)=O)n(C)c1=O` [Sample 3, I-(n-hexyl)-3-methyl-7-(5-oxohexyl)-xanthine], in data set [2] (setting [12]), the change in vivo at 3 mg/kg was -52% and the change in vivo at 10 mg/kg is -90%. Moreover, the “Broncholytic effect against histamine compared with sample 8” value in data set [2] (guinea pig, in vivo) is on record as “improved broncholytic effect against histamine”. Also, in data set [7] (1 mg/kg i.v.), the “Cerebral blood perfusion half-life” value came out at 0.4 min and the “Cerebral blood perfusion Δλ (change of blood perfusion)” value is reported as “+0.97”. For the same molecule, in data set [7] (2 mg/kg i.v.), the “Cerebral blood perfusion half-life” value turned out to be 7.0 min and the “Cerebral blood perfusion Δλ (change of blood perfusion)” value is given as “+1.45”. In data set [7] (setting [13]), the “Cerebral blood perfusion relative to comparison sample 8” value is “about two times as strong” and the “Half-life (cerebral) relative to comparison sample 8” value was “about three times as long”. The change in vivo at 10 mg/kg in data set [3] is -85%. Besides, in data set [8] (1 mg/kg i.v.), the “Muscular blood perfusion half-life” value came to 3.30 min and the “Muscular blood perfusion Δλ (change of blood perfusion)” value was -0.05. Moreover, the “Muscular blood perfusion Δλ (change of blood perfusion)” value in data set [8] (2 mg/kg i.v.) came to 0. Besides, the “Change of the bronchospasm in %” value in data set [5] (3 mg/kg i.v.) was -50%. Also, the “Change of the bronchospasm in %” value in data set [5] (10 mg/kg i.v.) was -100%. Moreover, the LD50 in data set [6] was 250 to 500 mg/kg.
For the molecule `CCCCn1cnc2c1c(=O)n(CCCCC(C)=O)c(=O)n2C` [Sample 5, 1-(5-Oxohexyl)-3-methyl-7-(n-butyl)-xanthine], the change in vivo at 5 mg/kg was -42% in data set [2] (Cavia porcellus, iv, 2 min, 5 mg/kg i.v., 2 min. i.p.) and -100% in data set [3] (5 mg/kg i.v.). Further, the results for the change in vivo at 10 mg/kg in data set [2] (setting [12]) and in data set [3] were -69% and -100%, respectively. The figures for the “Cerebral blood perfusion half-life” value in data set [7] (1 mg/kg i.v.), in data set [7] (2 mg/kg i.v.) and in data set [7] (5 mg/kg i.v.) were 1.3 min, 1.3 min and 3.0 min, respectively. Besides, the figures for the “Cerebral blood perfusion relative to comparison sample 8” value in data set [7] (1 mg/kg i.v.) and in data set [7] (5 mg/kg i.v.) were “nearly six times higher” and “about three times higher”, respectively. The “Cerebral blood perfusion Δλ (change of blood perfusion)” value in data set [7] (1 mg/kg i.v.) is reported as “+2.50”; in data set [7] (2 mg/kg i.v.), “+2.55”; in data set [7] (5 mg/kg i.v.) it was “+2.40”. Besides, the “Muscular blood perfusion Δλ (change of blood perfusion)” value in data set [8] (1 mg/kg i.v.), in data set [8] (2 mg/kg i.v.) and in data set [8] (5 mg/kg i.v.) was 0 in each case. The “Change of the bronchospasm in %” value in data set [5] (5 mg/kg i.v.) was -70%; in data set [5] (10 mg/kg i.v.), -100%. Moreover, in data set [6], the LD50 was 250 to 500 mg/kg.
Take `CCCCCCCCCCn1cnc2c1c(=O)n(CCCCC(C)=O)c(=O)n2C` [Sample 6, 1-(5-oxohexyl)-3-methyl-7-(n-decyl)-xanthine]: the change in vivo at 10 mg/kg in data set [2] (setting [9]) is -40%; in data set [3] (sample in propanediol), -50%. The “Cerebral blood perfusion half-life” value in data set [7] (1 mg/kg i.v.) stood at 0.2 min; in data set [7] (3 mg/kg i.v.) it was 0.5 min. In addition, the entries for the “Cerebral blood perfusion Δλ (change of blood perfusion)” value in data set [7] (1 mg/kg i.v.) and in data set [7] (3 mg/kg i.v.) were “+1.40” and “+2.8”, respectively. The “Muscular blood perfusion Δλ (change of blood perfusion)” value in data set [8] (1 mg/kg i.v.) is listed as 0; in data set [8] (3 mg/kg i.v.) it was “+0.30”. In addition, the “Muscular blood perfusion half-life” value in data set [8] (3 mg/kg i.v.) is 4.00 min. In addition, in data set [5] (setting [11]), the “Change of the bronchospasm in %” value is on record as -50%. Besides, in data set [6], the median lethal dose (LD50) turned out to be 500 mg/kg.

For the origin of these results see patent US4289776A, “Xanthine derivatives” (Hoechst Aktiengesellschaft, priority 1973, dated 1981).
